This is an account of results in paper PMC8150775, “Repositioning Azelnidipine as a Dual Inhibitor Targeting CD47/SIRPα and TIGIT/PVR Pathways for Cancer Immuno-Therapy” (Biomolecules, 2021).

Test [1] relates to peripheral blood mononuclear cells. Set-up: method as in PMID 29398679, PMID 20606305. Particulars: cited from earlier work.
The target of test [2] is T1, human PD-1/PD-L1 (Homo sapiens, UniProt Q15116).
T1 construct: host or cells: CHOK1-hPD-L1 cells
The test is described as follows: Blocking assay, PD-1-Fc protein binding to CHOK1-hPD-L1 cells. Particulars: 100 μM. From the text:
(§1) The small molecule inhibitor could not only bind to the target; most importantly, it should interfere with the receptor–ligand interactions. Subsequently, the candidate inhibitors were screened by the blocking assays with the established CD47 and TIGIT over-expressing cell lines. The test was initialed with a preliminary screening of the candidates with a single concentration (Figure 2D). Generally, the SMI blocking efficacy to the CD47/SIRPα interaction was much higher than that of the TIGIT/PVR. […] Therefore, the SMI-F11 and SMI-F17 may exert dual blocking effects in the CD47/SIRPα and TIGIT/PVR pathways. Blocking assays with a concentration gradient of the SMI were further performed to validate the preliminary screening. […] The similar blocking assays with the mouse CD47 and TIGIT over-expressing cells were also performed. […] Considering that most pairs of the immune checkpoints interact with the corresponding ligand in parallel forms, the blocking assays with the PD-1/PD-L1 interaction system was also conducted to test the specificity.
There are three supplemental Figures and one supplemental Table.
Supplemental figure and legend
Figure S1. The blocking efficacy of PD-1/PD-L1 by Azelnidipine. (A) The representative FACS histogram of blocking assay of Azelnidipine (100 μM) with CHOK1-hPD-L1 cells and PD-1-Fc protein (blue histogram). […]

Test [3] has as its target T2, human TIGIT/PVR (Homo sapiens, UniProt P15151).
T2 construct: purchased ACRO Biosystem CD5-H82F6; host or cells: soluble protein purchased; TIGIT on CHOK1-hTIGIT cells (lenti-viral transfection)
Kind of test: Blocking assay, human PVR protein binding to CHOK1-hTIGIT cells. The note with it: concentration gradient; read-out: IC50, blocking human TIGIT/PVR (hPVR binding). On the procedure: (§2) The abilities of small molecule inhibitors (SMIs) (purchased from TargetMol, Shanghai, China) to block the binding of SIRPα protein to CHOK1-CD47 cells or PVR protein to CHOK1-TIGIT cells were determined by flow cytometry, as previously reported. The SMIs at indicated concentrations were incubated with Fc-tagged SIRPα or PVR protein for 30 min at 4°C, followed by incubating with the indicated cells for another 30 min. Human SIRPα protein (SIA-H5251, ACRO Biosystem, Beijing, China), mouse SIRPα protein (SIA-M5258, ACRO Biosystem, Beijing, China), human PVR protein (CD5-H82F6, ACRO Biosystem, Beijing, China), and mouse PVR protein (50259-M03H, Sino Biological, Beijing, China) were used. PE-conjugated anti-human IgG antibody was used to detect the Fc protein bind to cells. Cells incubated with the Fc proteins and anti-human IgG antibody without the SMIs serve as the positive control. The mean fluorescent intensity (MFI) of each sample was detected and recorded by a flow cytometry. The blocking efficacy of the SMIs was calculated as the equation: (MFI of the positive control-MFI of the SMI)/MFI of the positive control × 100%.

Test [4] addresses T3, CD47/SIRPα interaction (Homo sapiens, UniProt P78324).
T3 construct: purchased ACRO Biosystem SIA-H5251; host or cells: CHOK1-CD47 cells (lenti-viral transfection)
The test is described as follows: Blocking assay by flow cytometry, preliminary screening at a single concentration, CD47/SIRPα. It is filed as binding. The note with it: preliminary test, single concentration of 100 μM. On the procedure: as §2, §1
(In flow cytometry, cells or beads pass a laser one at a time.)

Test [5] concerns PVR. Kind of test: Flow cytometry of PVR expression on CT26 cells in vitro. Format: cell-based, mouse. Particulars: 20 μM, 24 h. On the procedure:
(§3) Cells in good growth condition were harvested and used to detect the expression of CD47 and PVR. Antibodies anti-human CD47 APC, anti-human PVR PE, anti-mouse-CD47 APC, anti-mouse-PVR APC, and matched isotype controls were purchased from eBioscience, San Diego, CA, USA. The effects of azelnidipine on the expression of CD47 and PVR was determined by incubating CT26 cells with 20 μM of azelnidipine for 24 h, or directly analyzing the tumor cells from tumor tissues of CT26-bearing mice treated with or without azelnidipine.
(§4) Figure S3. The effects of Azelnidipine on the expression of CD47 and PVR on CT26 tumor cells. (A and B) CT26 cells were incubated with 20 μM Azelnidipine or vehicle control for 24h, and analyzed the expression of CD47 (A) and PVR (B). The gray shaded histogram represents the isotype, the red line represents the cells treated with vehicle control, and the blue line represents the cells treated with Azelnidipine. (C and D) Tumor cells (CD45-) derived from the tumor tissues of CT26 tumor-bearing mice treated with normal saline (NS) or 5 mg/kg Azelnidipine for twelve days, were analyzed for the expression of CD47 (C) and PVR (D). n.s. means not […]
(§5) (1 picture or pasted object on this page, not shown here)

The target of test [6] is T4, mouse CD47/SIRPα (Mus musculus, UniProt P97797).
T4 construct: purchased ACRO Biosystem SIA-M5258; host or cells: soluble protein purchased; CD47 on CHOK1-mCD47 cells (lenti-viral transfection)
T4 sequence (P97797 32-373 limits assumed): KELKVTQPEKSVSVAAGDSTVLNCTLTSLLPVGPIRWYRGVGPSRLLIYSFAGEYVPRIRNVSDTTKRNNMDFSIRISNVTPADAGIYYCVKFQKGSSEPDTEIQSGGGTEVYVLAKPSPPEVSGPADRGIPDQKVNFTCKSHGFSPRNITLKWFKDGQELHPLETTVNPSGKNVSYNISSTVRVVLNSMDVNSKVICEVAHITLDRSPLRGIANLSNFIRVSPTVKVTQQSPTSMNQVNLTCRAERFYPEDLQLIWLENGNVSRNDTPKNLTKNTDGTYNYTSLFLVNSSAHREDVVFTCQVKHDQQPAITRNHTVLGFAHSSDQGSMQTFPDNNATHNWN
Kind of test: Blocking assay, mouse SIRPα protein binding to CHOK1-mCD47 cells. Particulars: concentration gradient; read-out: IC50, blocking mouse CD47/SIRPα (mSirpα binding). On the procedure: as §2, with “(SIA-[…],” for “(SIA-H5251,”, “(SIA-[…],” for “(SIA-M5258,”, “(CD5-[…],” for “(CD5-H82F6,”, “(50259-[…],” for “(50259-M03H,”

For test [7], the system named is PVR. The test is described as follows: Flow cytometry of PVR expression on tumor cells from CT26-bearing mice. It is filed as in vivo, mouse. Particulars: 5 mg/kg for twelve days, CD45- tumor cells. On the procedure: as §3, §4, §5
Test [8] concerns IL-12 p40. Set-up: method as in PMID 19438591. Particulars: cited from earlier work.

T3 sequence (P78324 31-370 limits assumed): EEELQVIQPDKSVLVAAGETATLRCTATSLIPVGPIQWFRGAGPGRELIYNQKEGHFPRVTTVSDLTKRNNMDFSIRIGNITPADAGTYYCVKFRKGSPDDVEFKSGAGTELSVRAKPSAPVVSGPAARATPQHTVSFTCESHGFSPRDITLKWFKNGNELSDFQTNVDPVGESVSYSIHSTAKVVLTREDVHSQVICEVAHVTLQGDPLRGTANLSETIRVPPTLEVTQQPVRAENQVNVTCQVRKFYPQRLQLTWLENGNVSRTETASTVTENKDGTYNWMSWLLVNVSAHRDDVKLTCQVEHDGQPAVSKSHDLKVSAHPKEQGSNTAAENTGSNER
T2 sequence (P15151 21-343 limits assumed): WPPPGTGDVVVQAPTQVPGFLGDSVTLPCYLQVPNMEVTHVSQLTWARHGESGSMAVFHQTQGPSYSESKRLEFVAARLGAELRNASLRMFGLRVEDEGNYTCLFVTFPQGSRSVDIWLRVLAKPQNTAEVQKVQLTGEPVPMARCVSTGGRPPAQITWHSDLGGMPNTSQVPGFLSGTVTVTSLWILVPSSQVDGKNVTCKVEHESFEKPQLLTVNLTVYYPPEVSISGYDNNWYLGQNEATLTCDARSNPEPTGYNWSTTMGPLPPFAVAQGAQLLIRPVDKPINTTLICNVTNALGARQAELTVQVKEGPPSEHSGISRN
T1 sequence (Q15116 25-167 limits assumed): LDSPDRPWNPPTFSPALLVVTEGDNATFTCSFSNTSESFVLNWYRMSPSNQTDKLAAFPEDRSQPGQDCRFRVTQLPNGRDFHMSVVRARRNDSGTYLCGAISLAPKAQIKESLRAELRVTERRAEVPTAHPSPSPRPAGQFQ

As to `CC1=C(C(=O)OC(C)C)C(c2cccc([N+](=O)[O-])c2)C(C(=O)OC2CN(C(c3ccccc3)c3ccccc3)C2)=C(N)N1` (centres unmarked) [Azelnidipine], in test [1], the “cytokine secretion of peripheral blood mononuclear cells” value was “inhibit”. The “blocking of human PD-1/PD-L1 interaction” value in test [2] is “could not block”. The figures for the IC50 in test [3] and in test [6] were approximately 28 µM and approximately 37 µM, respectively. Further, in test [4], the “blocking efficacy, CD47/SIRPα interaction” value is reported as “more than 50%”. Further, the “expression of PVR on CT26 cells” value in test [5] was “slightly inhibit”. In addition, the “expression of PVR on CT26 tumor cells derived from tumor tissues” value in test [7] is “could inhibit the expression of PVR”. Moreover, the “secretion of IL-12 p40 mediated by immune complex” value in test [8] is recorded as “enhance the secretion of IL-12 p40”.
